Assay results as given in paper PMC10999543, “Identification of kinase modulators as host-directed therapeutics against intracellular methicillin-resistant Staphylococcus aureus” (Frontiers in Cellular and Infection Microbiology, 2024).
Where two headings read alike, the source gives them in different places.

Key:
[1] = system: intracellular MRSA; assay type: cell-based, Staphylococcus aureus; details: for %GFP+ rep 1 / z-scoreMRSA+ rep 1: replicate 1; for %GFP+ rep 2 / z-scoreMRSA+ rep 2: replicate 2; for %GFP+ rep 3 / z-scoreMRSA+ rep 3: replicate 3; for z-scoreMRSA+ mean: mean of 3 replicates
Procedure: (§1) The cells were resuspended in cell culture medium without antibiotics, seeded with 10,000 cells/well into Costar flat-bottom 96-well plates (Corning, Amsterdam, the Netherlands), and were incubated overnight at 37°C/5% CO2. The next day, the bacteria were centrifuged at ≥1800 g for 15 min and resuspended in cold PBS + 5 mM ethylenediaminetetraacetic acid (EDTA). The number of CFUs present in the bacterial suspension was estimated from the optical density at 600 nm (OD600) by assuming 8x10^8 CFUs to be present in a bacterial suspension with OD600 = 1, based on prior titrations. The bacterial suspension was diluted in cell culture medium without antibiotics and added to the cells. Accuracy of the multiplicity of infection (MOI) was validated by plating serial dilutions of the MRSA inoculums on Difco TS agar plates (BD Biosciences). The calculated mean MOI throughout all experiments was 6.8 ± 4.6 (mean ± SD). Infected cells were centrifuged for 3 min at 150 g and incubated for 1 hour at 37°C/5% CO2. Next, the cells were incubated with fresh cell culture medium supplemented with 30 µg/ml gentamicin sulphate (Lonza BioWhittaker, Basel, Switzerland) for 15 min at 37°C/5% CO2 to kill residual extracellular bacteria. Infected cells were incubated overnight at 37°C/5% CO2 in cell culture medium in the presence of kinase inhibitors and 5 µg/ml gentamicin sulphate-containing medium to prevent the growth of extracellular bacteria. The solvent of the compounds, DMSO, was used at equal % v/v as a negative control. For the screen, each compound was tested in triplicate, on separate cell culture plates, resulting in triplicate values for each kinase inhibitor.
(§2) HeLa cells were harvested by trypsinization and fixed with 1% paraformaldehyde. Samples were measured on a FACSLyric with HTS extension (BD Biosciences). Flow cytometry data were analysed using FlowJo version 10 (TreeStar, Ashland, OR, USA). HeLa cells positive for GFP were gated to calculate the percentage of MRSA-infected cells. The cell count was used as surrogate readout of cell viability.
To identify potential “hit” compounds, the flow cytometry data were used to calculate standard z-scores using z = (x-μ)/σ – zneg, where x is total event count or the percent of GFP-positive cells from a single well, μ is the mean from wells of the plate, σ is the standard deviation of the plate and zneg is the mean z-score of the negative control of the plate (i.e., DMSO) ([Korbee et al., 2018]). To minimize the possibility that the presence of extreme values on a plate affected the z-scores, raw values that deviated two-fold from the negative controls were excluded when calculating plate means and standard deviations as used in the aforementioned formula. Compounds were considered a “hit” when z-scoreMRSA+ ≤ -2 and z-scoreHeLa ≥ -3 for cell count. In cases where compounds were screened twice, the average values were used to select hit compounds.

[2] = system: HeLa cells; test: Compound screen by flow cytometry: HeLa cell count as surrogate readout of cell viability (z-scoreHeLa); assay type: cell-based, human; details: for cell count rep 1 / z-scoreHeLa rep 1: replicate 1; for cell count rep 2 / z-scoreHeLa rep 2: replicate 2; for cell count rep 3 / z-scoreHeLa rep 3: replicate 3; for z-scoreHeLa mean: mean of 3 replicates
Procedure: as §1, §2
To minimize the possibility that the presence of extreme values on a plate affected the z-scores, raw values that deviated two-fold from the negative controls were excluded when calculating plate means and standard deviations as used in the aforementioned formula. Compounds were considered a “hit” when z-scoreMRSA+ ≤ -2 and z-scoreHeLa ≥ -3 for cell count. In cases where compounds were screened twice, the average values were used to select hit compounds.

[3] = PKIS compound screen raw data, MRSA-infected HeLa cells
[4] = Yes/No: effect without cell death
[5] = compound screen, MRSA-infected HeLa cells
[6] = PKIS compound screen raw data, HeLa cell count
[7] = compound screen, HeLa cell count
[8] = PKIS compound screen, MRSA-infected HeLa cells
[9] = PKIS compound screen, Yes/No call
[10] = PKIS compound screen, Yes/No call (effect without cell death)
[11] = PKIS compound screen, Yes/No call on z-scoreMRSA+
[12] = PKIS compounds raw data, MRSA-infected HeLa cells
[13] = PKIS compound screen, HeLa cell count
[14] = PKIS compound screen, Yes/No call on z-scoreHeLa
[15] = PKIS compounds raw data, HeLa cell count

For CCn1c(-c2nonc2N)nc2c(C#CC(C)(C)O)nc(OC[C@H](N)c3ccccc3)cc21 [GSK943949A], the “%GFP+ rep 1” value [1, 3] was 19.2%, the “%GFP+ rep 2” value [1, 3] was 16.3% and the “%GFP+ rep 3” value [1, 3] was 15.7%. For the same compound, the effect ([1]; Yes/No call from z-scoreMRSA+) was “No”, the hit [1, 4] was “No” and the “z-scoreMRSA+ mean” value [1, 5] was -1.63. The “z-scoreMRSA+ rep 1” value [1, 5] was -1.42, the “z-scoreMRSA+ rep 2” value [1, 5] was -1.53 and the “z-scoreMRSA+ rep 3” value [1, 5] was -1.95. The “cell count rep 1” value [2, 6] was 779, the “cell count rep 2” value [2, 6] was 847 and the “cell count rep 3” value [2, 6] was 431. The cell death ([2]; Yes/No call from z-scoreHeLa) was “No”, the z-scoreHeLa mean [2, 7] was -2.76 and the “z-scoreHeLa rep 1” value [2, 7] was -2.58. The “z-scoreHeLa rep 2” value [2, 7] was -2.66 and the “z-scoreHeLa rep 3” value [2, 7] was -3.04.
With Nc1ncc(-c2cccnc2)c2scc(-c3ccc4c(c3)CCN4C(=O)Cc3ccccc3)c12 [GSK683281A] the “%GFP+ rep 1” value [1, 3] was 18.3%, the “%GFP+ rep 2” value [1, 3] was 19.8% and the “%GFP+ rep 3” value [1, 3] was 19.8%. For the same compound, the “z-scoreMRSA+ mean” value [1, 8] was 0.18, the “z-scoreMRSA+ rep 1” value [1, 8] was 0.14 and the “z-scoreMRSA+ rep 2” value [1, 8] was 0.38. The “z-scoreMRSA+ rep 3” value [1, 8] was 0.00377, the effect [1, 9] was “No” and the hit [1, 10] was “No”. For the same compound, the effect [1, 11] was “No”, the “z-scoreMRSA+ mean” value ([1]; PKIS compound screen) was 0.38 and the “z-scoreMRSA+ rep 1” value ([1]; PKIS compound screen) was 0.20. The “z-scoreMRSA+ rep 2” value ([1]; PKIS compound screen) was 0.70, the “z-scoreMRSA+ rep 3” value ([1]; PKIS compound screen) was 0.25 and the “%GFP+ rep 1” value [1, 12] was 28.1%. The “%GFP+ rep 2” value [1, 12] was 29.7%, the “%GFP+ rep 3” value [1, 12] was 28.6% and the “cell count rep 1” value [2, 6] was 22126. The “cell count rep 2” value [2, 6] was 22399, the “cell count rep 3” value [2, 6] was 35639 and the z-scoreHeLa mean [2, 13] was -0.93. The “z-scoreHeLa rep 1” value [2, 13] was 0.30, the “z-scoreHeLa rep 2” value [2, 13] was -2.31 and the “z-scoreHeLa rep 3” value [2, 13] was -0.78. For the same compound, the cell death [2, 9] was “No”, the cell death [2, 14] was “No” and the z-scoreHeLa mean ([2]; PKIS compound screen) was 0.13. For the same compound, the “z-scoreHeLa rep 1” value ([2]; PKIS compound screen) was 0.36, the “z-scoreHeLa rep 2” value ([2]; PKIS compound screen) was 0.0122 and the “z-scoreHeLa rep 3” value ([2]; PKIS compound screen) was 0.0253. The “cell count rep 1” value [2, 15] was 6640, the “cell count rep 2” value [2, 15] was 6026 and the “cell count rep 3” value [2, 15] was 5637.
Cn1cc(-c2ccc3c(c2)CCN3C(=O)Cc2cc(F)cc(C(F)(F)F)c2)c2c(N)ncnc21 [GSK2635225A] was tested, and the “%GFP+ rep 1” value [1, 3] was 22.6%, the “%GFP+ rep 2” value [1, 3] was 22.9% and the “%GFP+ rep 3” value [1, 3] was 20.1%. For the same compound, the effect ([1]; Yes/No call from z-scoreMRSA+) was “No”, the hit [1, 4] was “No” and the “z-scoreMRSA+ mean” value [1, 5] was -0.39. The “z-scoreMRSA+ rep 1” value [1, 5] was -0.62, the “z-scoreMRSA+ rep 2” value [1, 5] was 0.07 and the “z-scoreMRSA+ rep 3” value [1, 5] was -0.63. For the same compound, the “cell count rep 1” value [2, 6] was 4783, the “cell count rep 2” value [2, 6] was 4290 and the “cell count rep 3” value [2, 6] was 4665. For the same compound, the cell death ([2]; Yes/No call from z-scoreHeLa) was “No”, the z-scoreHeLa mean [2, 7] was -0.02 and the “z-scoreHeLa rep 1” value [2, 7] was 0.31. For the same compound, the “z-scoreHeLa rep 2” value [2, 7] was -0.0088 and the “z-scoreHeLa rep 3” value [2, 7] was -0.36.
Cn1cncc1-c1cc2c(Nc3ccc(OCc4ccccc4)cc3)ncnc2cn1 [GW281179X] was tested, and the “%GFP+ rep 1” value [1, 3] was 19.2%, the “%GFP+ rep 2” value [1, 3] was 17.8% and the “%GFP+ rep 3” value [1, 3] was 19.0%. For the same compound, the “z-scoreMRSA+ mean” value [1, 8] was -0.31, the “z-scoreMRSA+ rep 1” value [1, 8] was 0.11 and the “z-scoreMRSA+ rep 2” value [1, 8] was -0.44. The “z-scoreMRSA+ rep 3” value [1, 8] was -0.61, the effect [1, 9] was “No” and the hit [1, 10] was “No”. The effect [1, 11] was “No”, the “z-scoreMRSA+ mean” value ([1]; PKIS compound screen) was -0.18 and the “z-scoreMRSA+ rep 1” value ([1]; PKIS compound screen) was -0.25. For the same compound, the “z-scoreMRSA+ rep 2” value ([1]; PKIS compound screen) was 0.13, the “z-scoreMRSA+ rep 3” value ([1]; PKIS compound screen) was -0.42 and the “%GFP+ rep 1” value [1, 12] was 25.8%. The “%GFP+ rep 2” value [1, 12] was 26.7%, the “%GFP+ rep 3” value [1, 12] was 25.0% and the “cell count rep 1” value [2, 6] was 28376. The “cell count rep 2” value [2, 6] was 11001, the “cell count rep 3” value [2, 6] was 11278 and the z-scoreHeLa mean [2, 13] was -1.41. The “z-scoreHeLa rep 1” value [2, 13] was -0.31, the “z-scoreHeLa rep 2” value [2, 13] was -2.45 and the “z-scoreHeLa rep 3” value [2, 13] was -1.49. For the same compound, the cell death [2, 9] was “No”, the cell death [2, 14] was “No” and the z-scoreHeLa mean ([2]; PKIS compound screen) was -1.83. The “z-scoreHeLa rep 1” value ([2]; PKIS compound screen) was -2.06, the “z-scoreHeLa rep 2” value ([2]; PKIS compound screen) was -2.65 and the “z-scoreHeLa rep 3” value ([2]; PKIS compound screen) was -0.79. For the same compound, the “cell count rep 1” value [2, 15] was 2614, the “cell count rep 2” value [2, 15] was 2008 and the “cell count rep 3” value [2, 15] was 4357.
For Fc1ccc(-c2ncn(C3CCNCC3)c2-c2ccnc(Oc3cccc(C(F)(F)F)c3)n2)cc1 [SB-253226], the “%GFP+ rep 1” value [1, 3] was 14.0%, the “%GFP+ rep 2” value [1, 3] was 15.8% and the “%GFP+ rep 3” value [1, 3] was 16.0%. The “z-scoreMRSA+ mean” value [1, 8] was -1.07, the “z-scoreMRSA+ rep 1” value [1, 8] was -1.22 and the “z-scoreMRSA+ rep 2” value [1, 8] was -0.82. For the same compound, the “z-scoreMRSA+ rep 3” value [1, 8] was -1.15, the hit [1, 10] was “No” and the effect [1, 11] was “No”.
